Data reported in ChEMBL document CHEMBL1136459, “New antibacterial tetrahydro-4(2H)-thiopyran and thiomorpholine S-oxide and S,S-dioxide phenyloxazolidinones” (Bioorg Med Chem Lett, 2003).
In brackets after ≈: the same amount, converted by molar mass.

Key:
Haemophilus influenzae [1] = experiment: In vitro antibacterial activity against Haemophilia influenzae strains ATCC 30063 and ATCC 31517; assay type: functional
Staphylococcus aureus [2] = experiment: In vitro antibacterial activity against linezolid-resistant Staphylococcus aureus ATCC 29213 (LRSA).; assay type: functional
Staphylococcus aureus [3] = experiment: In vitro antibacterial activity against Staphylococcus aureus strains UC12673, UC9213, ATCC 29213, and UC9271 (SA); range is 32-64; assay type: functional
[4] = test system: Staphylococcus epidermidis; experiment: In vitro antibacterial activity against Staphylococcus epidermidis strains UC12084, 30031, and CDC-CNS90 (SE); range is 16-32; assay type: functional
Enterococcus faecium = experiment: In vitro antibacterial activity against vancomycin-resistant Enterococcus faecium UC12712 (VRE).
Moraxella catarrhalis [5] = experiment: In vitro antibacterial activity against Moraxella catarrhalis strains 30607 and 30603 (MC).; assay type: functional
Streptococcus pneumoniae [6] = experiment: In vitro antibacterial activity against Streptococcus pneumoniae strains ATCC 6305 and 31573 (SPN); range is 8-16
Staphylococcus aureus [7] = experiment: In vitro antibacterial activity against Staphylococcus aureus strains UC12673, UC9213, ATCC 29213, and UC9271 (SA); range is 4-16; assay type: functional
[8] = test system: Staphylococcus epidermidis; experiment: In vitro antibacterial activity against Staphylococcus epidermidis strains UC12084, 30031, and CDC-CNS90 (SE); range is 2-4; assay type: functional
Moraxella catarrhalis [9] = experiment: In vitro antibacterial activity against Moraxella catarrhalis strains 30607 and 30603 (MC); range is 16-32; assay type: functional
Haemophilus influenzae [10] = experiment: In vitro antibacterial activity against Haemophilia influenzae strains 30063 and ATCC 31517 (HI); range is 16-64; assay type: functional
Moraxella catarrhalis [11] = experiment: In vitro antibacterial activity against Moraxella catarrhalis strains 30607 and 30603 (MC); range is 32-64; assay type: functional
[12] = test system: Staphylococcus epidermidis; experiment: In vitro antibacterial activity against Staphylococcus epidermidis strains UC12084, 30031, and CDC-CNS90 (SE); assay type: functional
Staphylococcus aureus [13] = experiment: In vitro antibacterial activity against Staphylococcus aureus strains UC12673, UC9213, ATCC 29213, and UC9271 (SA); range is 8-32; assay type: functional
[14] = In vivo Cmax was determined after peroral administration of compound (158.5+/-2 mg/kg) in male Sprague-Dawley rat; assay type: ADME, organism-based; set-up: route oral; details: po
Rattus norvegicus [15] = experiment: In vivo Cmax was determined after peroral administration of compound (19.01+/-0.31 mg/kg) in male Sprague-Dawley rat; assay type: ADME, organism-based; set-up: route oral; details: po
Rattus norvegicus [16] = experiment: In vivo Cmax was determined after intravenous administration of compound (9.13+/-0.85 mg/kg) in male Sprague-Dawley rat; assay type: ADME, organism-based; set-up: route intravenous
Rattus norvegicus [17] = experiment: In vivo Area under curve (AUC) was determined after peroral administration of compound (76.4+/-2.6 mg/kg) in male Sprague-Dawley rat; assay type: ADME, organism-based; details: po
Rattus norvegicus [18] = experiment: In vivo Area under curve (AUC) was determined after oral administration of compound (158.5+/-2 mg/kg) in male Sprague-Dawley rat
Rattus norvegicus [19] = experiment: In vivo Clearance (Cl) was determined after intravenous administration of compound (9.13+/-0.85 mg/kg) in male Sprague-Dawley rat; assay type: ADME, organism-based
Haemophilus influenzae [20] = experiment: In vitro antibacterial activity against Haemophilia influenzae strains 30063 and ATCC 31517 (HI); range is 4-8; assay type: functional
[21] = In vivo Oral bioavailability (F)was determined after peroral administration of compound (76.4+/-2.6 mg/kg) in male Sprague-Dawley rat; assay type: ADME, organism-based
Rattus norvegicus [22] = experiment: In vivo Area under curve (AUC) was determined after peroral administration of compound (19.01+/-0.31 mg/kg) in male Sprague-Dawley rat; assay type: ADME, organism-based; details: po
Rattus norvegicus [23] = experiment: In vivo t1/2 was determined after peroral administration of compound (19.01+/-0.31 mg/kg) in male Sprague-Dawley rat; assay type: ADME, organism-based; details: po
Rattus norvegicus [24] = experiment: In vivo Area under curve (AUC) was determined after intravenous administration of compound (9.13+/-0.85 mg/kg) in male Sprague-Dawley rat; assay type: ADME, organism-based
Mus musculus = experiment: In vivo Efficacy of compound after peroral administration in mouse; assay type: functional; details: po
Rattus norvegicus [25] = experiment: In vivo Volume distribution (Vss) was determined after peroral administration of compound (158.5+/-2 mg/kg) in male Sprague-Dawley rat; assay type: ADME, organism-based; details: po
Rattus norvegicus [26] = experiment: In vivo Tmax was determined after peroral administration of compound (19.01+/-0.31 mg/kg) in male Sprague-Dawley rat; assay type: ADME, organism-based; details: po
[27] = In vivo t1/2 was determined after peroral administration of compound (158.5+/-2 mg/kg) in male Sprague-Dawley rat; assay type: ADME, organism-based; details: po
Staphylococcus aureus [28] = experiment: In vitro antibacterial activity against Staphylococcus aureus strains UC12673, UC9213, ATCC 29213, and UC9271 (SA); range is 2-4; assay type: functional
[29] = test system: Staphylococcus epidermidis; experiment: In vitro antibacterial activity against Staphylococcus epidermidis strains UC12084, 30031, and CDC-CNS90 (SE); range is 1-24; assay type: functional
Rattus norvegicus [30] = experiment: In vivo Tmax was determined after peroral administration of compound (76.4+/-2.6 mg/kg) in male Sprague-Dawley rat; assay type: ADME, organism-based; details: po
[31] = In vivo Tmax was determined after peroral administration of compound (158.5+/-2 mg/kg) in male Sprague-Dawley rat; assay type: ADME, organism-based; details: po
Moraxella catarrhalis [32] = experiment: In vitro antibacterial activity against Moraxella catarrhalis strains 30607 and 30603 (MC); range is 4-8; assay type: functional
[33] = In vivo Oral bioavailability (F)was determined after peroral administration of compound (158.5+/-2 mg/kg) in male Sprague-Dawley rat; assay type: ADME, organism-based
[34] = In vivo Oral bioavailability (F)was determined after peroral administration of compound (19.01+/-0.31 mg/kg) in male Sprague-Dawley rat; assay type: ADME, organism-based
Rattus norvegicus [35] = experiment: In vivo t1/2 was determined after intravenous administration of compound (9.13+/-0.85 mg/kg) in male Sprague-Dawley rat; assay type: ADME, organism-based
Rattus norvegicus [36] = experiment: In vivo Volume distribution (Vss) was determined after peroral administration of compound (76.4+/-2.6 mg/kg) in male Sprague-Dawley rat; assay type: ADME, organism-based; details: po
Rattus norvegicus [37] = experiment: In vivo t1/2 was determined after peroral administration of compound (76.4+/-2.6 mg/kg) in male Sprague-Dawley rat; assay type: ADME, organism-based; details: po
[38] = In vivo Volume distribution (Vss) was determined after intravenous administration of compound (9.13+/-0.85 mg/kg) in male Sprague-Dawley rat; assay type: ADME, organism-based; details: read-out: Vss
Rattus norvegicus [39] = experiment: In vivo Cmax was determined after peroral administration of compound (76.4+/-2.6 mg/kg) in male Sprague-Dawley rat; assay type: ADME, organism-based; set-up: route oral; details: po
Rattus norvegicus [40] = experiment: In vivo Tmax was determined after intravenous administration of compound (9.13+/-0.85 mg/kg) in male Sprague-Dawley rat; assay type: ADME, organism-based
Moraxella catarrhalis [41] = experiment: In vitro antibacterial activity against Moraxella catarrhalis strains 30607 and 30603 (MC); range is 2-4; assay type: functional
Streptococcus pneumoniae [42] = experiment: In vitro antibacterial activity against Streptococcus pneumoniae strains ATCC6305 and 31573 (SPN).

O=C(NC[C@H]1CN(c2ccc(N3CC[S+]([O-])CC3)c(F)c2)C(=O)O1)c1ccccc1
MIC (Haemophilus influenzae [1]): > 64 µg/mL
MIC (Staphylococcus aureus [2]): > 64 µg/mL
MIC (Staphylococcus aureus [3]): 32 µg/mL (≈ 74.2 µM)
MIC [4]: 16 µg/mL (≈ 37.1 µM)
MIC (Enterococcus faecium): 32 µg/mL (≈ 74.2 µM)
MIC (Moraxella catarrhalis [5]): > 64 µg/mL
MIC (Streptococcus pneumoniae [6]): 8 µg/mL (≈ 18.5 µM)

O=C(/C=C/c1cccnc1)NC[C@H]1CN(c2ccc(C3CCS(=O)(=O)CC3)c(F)c2)C(=O)O1
MIC (Staphylococcus aureus [7]): 4 µg/mL (≈ 8.45 µM)
MIC (Staphylococcus aureus [2]): 32 µg/mL (≈ 67.6 µM)
MIC [8]: 2 µg/mL (≈ 4.22 µM)
MIC (Moraxella catarrhalis [9]): 16 µg/mL (≈ 33.8 µM)
MIC (Enterococcus faecium): 8 µg/mL (≈ 16.9 µM)
MIC (Haemophilus influenzae [10]): 16 µg/mL (≈ 33.8 µM)

CC(=O)Oc1ccc(C(=O)NC[C@H]2CN(c3ccc(C4CC[S+]([O-])CC4)c(F)c3)C(=O)O2)cc1 (stereo partly specified)
MIC (Haemophilus influenzae [1]): 64 µg/mL (≈ 131 µM)
MIC (Staphylococcus aureus [2]): 64 µg/mL (≈ 131 µM)
MIC (Moraxella catarrhalis [11]): 32 µg/mL (≈ 65.5 µM)
MIC [12]: 4 µg/mL (≈ 8.19 µM)
MIC (Enterococcus faecium): 0.06 µg/mL (≈ 0.123 µM)
MIC (Staphylococcus aureus [13]): 8 µg/mL (≈ 16.4 µM)

O=C(NC[C@H]1CN(c2ccc(C3CC[S+]([O-])CC3)c(F)c2)C(=O)O1)C(F)F (stereo partly specified)
Cmax [14]: 9070 ng/mL
Cmax (Rattus norvegicus [15]): 3470 ng/mL
Cmax (Rattus norvegicus [16]): 15600 ng/mL
AUC (Rattus norvegicus [17]): 32400 ng·h/mL
AUC (Rattus norvegicus [18]): 60800 ng·h/mL
Cl (Rattus norvegicus [19]): 37.25 mL/min/kg
MIC (Haemophilus influenzae [20]): 4 µg/mL (≈ 9.89 µM)
bioavailability [21]: 95.1%
AUC (Rattus norvegicus [22]): 6570 ng·h/mL
T1/2 (Rattus norvegicus [23]): 3.6 h
AUC (Rattus norvegicus [24]): 4090 ng·h/mL
ED50 (Mus musculus): 6.52 mg/kg
MIC (Staphylococcus aureus [2]): 16 µg/mL (≈ 39.6 µM)
Vss (Rattus norvegicus [25]): 29.84 L/kg
T max (Rattus norvegicus [26]): 0.38 h
half-life [27]: 7.93 h
MIC (Staphylococcus aureus [28]): 2 µg/mL (≈ 4.95 µM)
MIC [29]: 1 µg/mL (≈ 2.47 µM)
T max (Rattus norvegicus [30]): 0.5 h
Tmax [31]: 0.38 h
MIC (Moraxella catarrhalis [32]): 4 µg/mL (≈ 9.89 µM)
bioavailability [33]: 85.7%
MIC (Enterococcus faecium): 2 µg/mL (≈ 4.95 µM)
bioavailability [34]: 77.1%
T1/2 (Rattus norvegicus [35]): 2.9 h
Vss (Rattus norvegicus [36]): 29.84 L/kg
T1/2 (Rattus norvegicus [37]): 4.25 h
Vd [38]: 1.78 L/kg
Cmax (Rattus norvegicus [39]): 8600 ng/mL
T max (Rattus norvegicus [40]): 1.98 min

CC(=O)NC[C@H]1CN(c2ccc(C3CCS(=O)(=O)CC3)c(F)c2)C(=O)O1
MIC (Haemophilus influenzae [20]): 4 µg/mL (≈ 10.4 µM)
MIC (Staphylococcus aureus [2]): 32 µg/mL (≈ 83.2 µM)
MIC (Moraxella catarrhalis [41]): 2 µg/mL (≈ 5.2 µM)
MIC [12]: 0.5 µg/mL (≈ 1.3 µM)
MIC (Staphylococcus aureus [28]): 2 µg/mL (≈ 5.2 µM)
MIC (Enterococcus faecium): 2 µg/mL (≈ 5.2 µM)
MIC (Streptococcus pneumoniae [42]): 0.5 µg/mL (≈ 1.3 µM)
